From US10151975B2, “Lithographic printing plate precursor” (AGFA NV, priority 2013, dated 2018)

Test: Solubility of the compounds: visual homogeneity of mixture in aqueous buffer pH 7
Type: physicochemical
Set-up: key to Visual homogeneity After 1 hour / Visual homogeneity After 1 day / Visual homogeneity After 4 days / Visual homogeneity After 1 week / Visual homogeneity After 2 weeks: −: heterogeneous mixture; +: homogeneous mixture
Settings: for Time after which the mixture becomes homogeneous: 100 mg compound in 5 ml aqueous buffer pH = 7; for Visual homogeneity After 1 week / Visual homogeneity After 2 weeks / Visual homogeneity After 1 hour / Visual homogeneity After 1 day / Visual homogeneity After 4 days: 100 mg compound in 5 ml aqueous buffer pH = 7, room temperature
Method: Solubility of the Compounds
100 mg of the inventive and comparative compounds were added to 5 ml of a CertiPUR pH=7 buffer solution available from Merck. The mixture was gently stirred at room temperature and the homogeneity of the mixture was evaluated visually after different times: […]

| Compound | Time after which the mixture becomes homogeneous | Visual homogeneity After 1 week | Visual homogeneity After 2 weeks | Visual homogeneity After 1 hour | Visual homogeneity After 1 day | Visual homogeneity After 4 days |
| --- | --- | --- | --- | --- | --- | --- |
| C=C(C)C(=O)OCCOC(=O)C(=O)OCCOC(=O)C(=C)C [Compound M-1] | 1 week | + | + | − | − | − |
| C=CC(=O)OCCCCOC(=C)C(=O)OCCCCOC(=O)C=C [Compound M-2] | 1 week | + | + | − | − | − |
| C=CC(=O)NCCOC(=O)C(=O)OCCNC(=O)C=C [Compound M-3] | 1 days | + | + | − | + | + |
| C=C(C)C(=O)OCCCNC(=O)C(=O)NCCCOC(=O)C(=C)C [Compound M-4] |  | − | − | − | − | − |
| C=C(C)C(=O)OCCOC(=O)NCCC(C)CC(C)(C)CNC(=O)OCCOC(=O)C(=C)C (centres unmarked) [Compound M-5] |  | − | − | − | − | − |
| C=CC(=O)OCCn1c(=O)n(CCOC(=O)C=C)c(=O)n(CCOC(=O)C=C)c1=O [Compound M-6] |  | − | − | − | − | − |
| C=CC(=O)OCCOCCOc1ccc(C(C)(C)c2ccc(OCCOC(=O)C=C)cc2)cc1 [Compound M-7] |  | − | − | − | − | − |
